Data reported in ChEMBL document CHEMBL4699491, “Identification of TNO155, an Allosteric SHP2 Inhibitor for the Treatment of Cancer” (J Med Chem, 2020).
In brackets after ≈: the same amount, converted by molar mass.

How the values were obtained:
KYSE-520 cell line = assay: Antiproliferative activity against human KYSE-520 cells; type: functional, cell-based
[1] = Toxicity in mouse 3T3 cells under irradiation by NRU phototoxicity test; type: cell-based
[2] = biological target: T1, Tyrosine-protein phosphatase non-receptor type 11 (Homo sapiens) (UniProt Q06124); details: filed as negative allosteric modulator
T1 sequence (whole entry): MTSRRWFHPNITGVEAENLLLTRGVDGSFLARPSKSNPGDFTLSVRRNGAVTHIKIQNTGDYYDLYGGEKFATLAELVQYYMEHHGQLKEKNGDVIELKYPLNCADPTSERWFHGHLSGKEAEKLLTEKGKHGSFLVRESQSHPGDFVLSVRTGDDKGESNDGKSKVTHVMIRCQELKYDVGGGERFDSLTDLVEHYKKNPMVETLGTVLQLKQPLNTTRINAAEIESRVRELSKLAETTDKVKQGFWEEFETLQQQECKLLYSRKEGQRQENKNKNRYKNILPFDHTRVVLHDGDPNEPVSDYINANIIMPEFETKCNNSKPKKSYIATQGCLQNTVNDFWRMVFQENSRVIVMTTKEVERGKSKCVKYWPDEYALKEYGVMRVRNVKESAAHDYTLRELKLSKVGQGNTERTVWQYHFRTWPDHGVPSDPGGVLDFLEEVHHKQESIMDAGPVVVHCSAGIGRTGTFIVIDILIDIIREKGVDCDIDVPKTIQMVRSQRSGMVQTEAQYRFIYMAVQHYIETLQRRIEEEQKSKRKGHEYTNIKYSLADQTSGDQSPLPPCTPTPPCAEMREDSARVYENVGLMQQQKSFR

[3] = octanol/water
Description: Lipophilicity, logP of the compound

physchem [4] = details: aqueous, pH 6.8
Description: Aqueous solubility of the compound at pH 6.8

physchem [5] = details: octanol/water
Description: Distribution coefficient, logD of the compound

[6] = biological target: T2, Tyrosine-protein phosphatase non-receptor type 11 (Homo sapiens, UniProt Q06124)
T2 sequence (Q06124 whole entry): T1 sequence (whole entry)
Description: Allosteric inhibition of human SHP2 in human KYSE-520 cells assessed as reduction in ERK1/2 phosphorylation by fluorescence based assay

[7] = biological target: Voltage-gated inwardly rectifying potassium channel KCNH2 (Homo sapiens, UniProt Q12809)
Sequence of Voltage-gated inwardly rectifying potassium channel KCNH2 (Q12809 whole entry): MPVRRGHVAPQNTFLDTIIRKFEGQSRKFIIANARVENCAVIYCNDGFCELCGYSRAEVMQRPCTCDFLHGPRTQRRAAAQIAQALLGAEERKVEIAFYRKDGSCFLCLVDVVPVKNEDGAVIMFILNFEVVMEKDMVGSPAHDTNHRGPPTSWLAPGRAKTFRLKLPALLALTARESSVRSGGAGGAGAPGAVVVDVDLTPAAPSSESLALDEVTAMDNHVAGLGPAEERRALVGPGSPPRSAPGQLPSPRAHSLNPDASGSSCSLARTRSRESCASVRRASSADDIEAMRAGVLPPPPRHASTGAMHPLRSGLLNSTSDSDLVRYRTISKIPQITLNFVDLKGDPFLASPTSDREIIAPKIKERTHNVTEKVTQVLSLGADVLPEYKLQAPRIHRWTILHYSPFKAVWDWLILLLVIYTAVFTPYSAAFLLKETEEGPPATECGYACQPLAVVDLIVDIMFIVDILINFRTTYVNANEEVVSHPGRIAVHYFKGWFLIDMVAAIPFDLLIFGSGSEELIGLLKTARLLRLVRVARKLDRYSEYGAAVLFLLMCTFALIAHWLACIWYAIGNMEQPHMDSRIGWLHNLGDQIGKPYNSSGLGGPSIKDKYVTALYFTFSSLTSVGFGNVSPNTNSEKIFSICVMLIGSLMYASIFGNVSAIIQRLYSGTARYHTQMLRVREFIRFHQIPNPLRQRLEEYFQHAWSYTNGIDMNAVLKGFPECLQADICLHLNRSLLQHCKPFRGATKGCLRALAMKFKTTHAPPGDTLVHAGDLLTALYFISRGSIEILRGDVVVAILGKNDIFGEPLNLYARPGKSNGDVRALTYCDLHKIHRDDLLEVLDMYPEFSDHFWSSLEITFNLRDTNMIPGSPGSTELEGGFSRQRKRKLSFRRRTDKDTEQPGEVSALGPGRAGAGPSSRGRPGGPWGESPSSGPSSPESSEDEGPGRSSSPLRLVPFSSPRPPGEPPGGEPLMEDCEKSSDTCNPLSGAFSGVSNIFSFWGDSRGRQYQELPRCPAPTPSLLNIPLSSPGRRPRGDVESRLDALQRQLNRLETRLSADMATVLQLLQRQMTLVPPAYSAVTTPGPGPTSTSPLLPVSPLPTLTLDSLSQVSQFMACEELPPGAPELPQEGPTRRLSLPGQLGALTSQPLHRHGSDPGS
Description: Inhibition of human ERG by Q-patch assay

physchem [8] = details: octanol/water; remark: listed apart in the source
Description: Lipophilicity, logP of the compound

MIA PaCa-2 = assay: cells; details: Homo sapiens
Description: Antiproliferative activity against human MIA PaCa-2 cells

[9] = biological target: T2, Tyrosine-protein phosphatase non-receptor type 11; assay: Allosteric inhibition of 6x-histidine tagged human SHP2 (Met1-L525 residues) expressed in Escherichia coli BL21 Star (DE3) using IRS1_pY1172(dPEG8)[…] incubated for 30 mins by fluorescence based DIFMUP assay
Cytochrome P450 3A4 = Cytochrome P450 3A4 (Homo sapiens, UniProt P08684); assay: Inhibition of CYP3A4 (unknown origin); type: ADME
Sequence of Cytochrome P450 3A4 (P08684 whole entry): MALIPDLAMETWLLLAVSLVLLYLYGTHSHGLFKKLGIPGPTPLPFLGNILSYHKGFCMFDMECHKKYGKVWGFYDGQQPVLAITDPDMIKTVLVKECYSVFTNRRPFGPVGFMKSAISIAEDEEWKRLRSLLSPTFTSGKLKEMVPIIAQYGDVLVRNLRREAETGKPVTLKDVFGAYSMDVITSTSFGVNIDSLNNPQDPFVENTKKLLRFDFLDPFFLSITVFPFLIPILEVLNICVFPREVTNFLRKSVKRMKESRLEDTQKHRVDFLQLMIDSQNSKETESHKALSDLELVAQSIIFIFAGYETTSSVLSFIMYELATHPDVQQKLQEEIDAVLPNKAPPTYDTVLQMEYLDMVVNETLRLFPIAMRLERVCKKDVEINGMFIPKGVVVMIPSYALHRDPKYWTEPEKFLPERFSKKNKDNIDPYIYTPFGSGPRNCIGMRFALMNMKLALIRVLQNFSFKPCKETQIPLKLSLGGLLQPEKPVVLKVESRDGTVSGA

Cytochrome P450 2D6 = Cytochrome P450 2D6 (Homo sapiens, UniProt P10635); assay: Inhibition of CYP2D6 (unknown origin); type: ADME
Sequence of Cytochrome P450 2D6 (P10635 whole entry): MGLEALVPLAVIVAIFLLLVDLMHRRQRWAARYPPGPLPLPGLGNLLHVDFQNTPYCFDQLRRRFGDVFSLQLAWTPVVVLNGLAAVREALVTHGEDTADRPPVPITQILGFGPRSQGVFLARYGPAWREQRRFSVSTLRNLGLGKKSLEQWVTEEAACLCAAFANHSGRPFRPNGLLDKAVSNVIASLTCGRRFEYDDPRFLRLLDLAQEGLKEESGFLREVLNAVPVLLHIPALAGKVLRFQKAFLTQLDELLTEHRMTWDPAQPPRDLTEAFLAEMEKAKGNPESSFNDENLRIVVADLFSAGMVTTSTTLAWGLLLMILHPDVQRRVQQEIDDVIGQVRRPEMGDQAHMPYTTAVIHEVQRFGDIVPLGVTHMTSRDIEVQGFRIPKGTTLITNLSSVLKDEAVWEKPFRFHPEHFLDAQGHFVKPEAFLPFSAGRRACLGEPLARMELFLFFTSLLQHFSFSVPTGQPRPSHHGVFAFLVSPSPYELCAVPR

Cytochrome P450 2C9 = Cytochrome P450 2C9 (Homo sapiens, UniProt P11712); assay: Inhibition of CYP2C9 (unknown origin); type: ADME
Sequence of Cytochrome P450 2C9 (P11712 whole entry): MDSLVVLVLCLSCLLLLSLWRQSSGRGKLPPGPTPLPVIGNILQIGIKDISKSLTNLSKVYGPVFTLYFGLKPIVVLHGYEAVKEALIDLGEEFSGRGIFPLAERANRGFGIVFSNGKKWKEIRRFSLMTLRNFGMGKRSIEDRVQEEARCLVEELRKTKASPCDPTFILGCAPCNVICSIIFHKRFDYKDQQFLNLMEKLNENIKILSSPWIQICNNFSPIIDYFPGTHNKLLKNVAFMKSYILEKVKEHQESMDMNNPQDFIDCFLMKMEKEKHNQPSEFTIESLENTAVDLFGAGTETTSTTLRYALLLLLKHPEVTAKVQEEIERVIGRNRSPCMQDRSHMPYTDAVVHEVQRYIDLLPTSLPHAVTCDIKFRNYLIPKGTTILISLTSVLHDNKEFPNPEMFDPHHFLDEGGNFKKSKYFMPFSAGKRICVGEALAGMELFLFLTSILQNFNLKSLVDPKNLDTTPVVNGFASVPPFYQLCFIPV

[10] = Toxicity in NU/NU mouse xenografted with human KYSE-520 cells assessed as induction of body weight loss eat 2.5 to 20 mg/kg, po BID for 2 weeks; type: organism-based; details: in vivo, 336 h, dose 2.5-20 mg/kg
[11] = Volume of distribution at steady state in C57BL/6 mouse at 1 mg/kg, iv by LC-MS/MS analysis; type: ADME, organism-based; details: in vivo, read-out: Vdss
[12] = Terminal half life in C57BL/6 mouse at 1 mg/kg, iv by LC-MS/MS analysis; type: ADME, organism-based; details: in vivo, read-out: beta t1/2 (converted)
[13] = AUC/dose in C57BL/6 mouse at 1 mg/kg, iv by LC-MS/MS analysis; type: ADME, organism-based; details: in vivo
[14] = AUC/dose in C57BL/6 mouse at 5 mg/kg, po by LC-MS/MS analysis; type: ADME, organism-based; details: in vivo
[15] = Cmax/dose in C57BL/6 mouse at 5 mg/kg, po by LC-MS/MS analysis; type: ADME, organism-based; details: in vivo
[16] = Tmax in C57BL/6 mouse at 5 mg/kg, po by LC-MS/MS analysis; type: ADME, organism-based; details: in vivo
[17] = Oral bioavailability in C57BL/6 mouse at 5 mg/kg by LC-MS/MS analysis; type: ADME, organism-based; details: in vivo
[18] = Protein binding in C57BL/6 mouse plasma; type: ADME, cell-free; details: read-out: PPB (converted)
[19] = Clearance in Sprague-Dawley rat at 1 mg/kg, iv by LC-MS/MS analysis; type: ADME, organism-based; details: in vivo
[20] = Volume of distribution at steady state in Sprague-Dawley rat at 1 mg/kg, iv by LC-MS/MS analysis; type: ADME, organism-based; details: in vivo, read-out: Vdss
[21] = Terminal half life in Sprague-Dawley rat at 1 mg/kg, iv by LC-MS/MS analysis; type: ADME, organism-based; details: in vivo, read-out: beta t1/2 (converted)
[22] = AUC/dose in Sprague-Dawley rat at 1 mg/kg, iv by LC-MS/MS analysis; type: ADME, organism-based; details: in vivo
[23] = AUC/dose in Sprague-Dawley rat at 5 mg/kg, po by LC-MS/MS analysis; type: ADME, organism-based; details: in vivo
[24] = Cmax/dose in Sprague-Dawley rat at 5 mg/kg, po by LC-MS/MS analysis; type: ADME, organism-based; details: in vivo
[25] = Tmax in Sprague-Dawley rat at 5 mg/kg, po by LC-MS/MS analysis; type: ADME, organism-based; details: in vivo
[26] = Oral bioavailability in Sprague-Dawley rat at 5 mg/kg by LC-MS/MS analysis; type: ADME, organism-based; details: in vivo
[27] = Protein binding in Sprague-Dawley rat plasma; type: ADME, cell-free; details: read-out: PPB (converted)
[28] = Clearance in beagle dog at 0.2 mg/kg, iv by LC-MS/MS analysis; type: ADME, organism-based, Canis lupus familiaris; details: in vivo
[29] = Volume of distribution at steady state in beagle dog at 0.2 mg/kg, iv by LC-MS/MS analysis; type: ADME, organism-based, Canis lupus familiaris; details: in vivo, read-out: Vdss
[30] = Terminal half life in beagle dog at 0.2 mg/kg, iv by LC-MS/MS analysis; type: ADME, organism-based, Canis lupus familiaris; details: in vivo, read-out: beta t1/2 (converted)
[31] = AUC/dose in beagle dog at 0.2 mg/kg, iv by LC-MS/MS analysis; type: ADME, organism-based, Canis lupus familiaris; details: in vivo
[32] = AUC/dose in beagle dog at 1 mg/kg, po by LC-MS/MS analysis; type: ADME, organism-based, Canis lupus familiaris; details: in vivo
[33] = Cmax/dose in beagle dog at 1 mg/kg, po by LC-MS/MS analysis; type: ADME, organism-based, Canis lupus familiaris; details: in vivo
[34] = Tmax in beagle dog at 1 mg/kg, po by LC-MS/MS analysis; type: ADME, organism-based, Canis lupus familiaris; details: in vivo
[35] = Oral bioavailability in beagle dog at 1 mg/kg by LC-MS/MS analysis; type: ADME, organism-based, Canis lupus familiaris; details: in vivo
[36] = Protein binding in beagle dog plasma; type: ADME, cell-free, Canis lupus familiaris; details: read-out: PPB (converted)
[37] = Clearance in cynomolgus monkey at 0.3 mg/kg, iv by LC-MS/MS analysis; type: ADME, organism-based, Macaca fascicularis; details: in vivo
[38] = Volume of distribution at steady state in cynomolgus monkey at 0.3 mg/kg, iv by LC-MS/MS analysis; type: ADME, organism-based, Macaca fascicularis; details: in vivo, read-out: Vdss
[39] = Terminal half life in cynomolgus monkey at 0.3 mg/kg, iv by LC-MS/MS analysis; type: ADME, organism-based, Macaca fascicularis; details: in vivo, read-out: beta t1/2 (converted)
[40] = AUC/dose in cynomolgus monkey at 0.3 mg/kg, iv by LC-MS/MS analysis; type: ADME, organism-based, Macaca fascicularis; details: in vivo
[41] = AUC/dose in cynomolgus monkey at 1 mg/kg, po by LC-MS/MS analysis; type: ADME, organism-based, Macaca fascicularis; details: in vivo
[42] = Cmax/dose in cynomolgus monkey at 1 mg/kg, po by LC-MS/MS analysis; type: ADME, organism-based, Macaca fascicularis; details: in vivo
[43] = Tmax in cynomolgus monkey at 1 mg/kg, po by LC-MS/MS analysis; type: ADME, organism-based, Macaca fascicularis; details: in vivo
[44] = Oral bioavailability in cynomolgus monkey at 1 mg/kg by LC-MS/MS analysis; type: ADME, organism-based, Macaca fascicularis; details: in vivo
[45] = Protein binding in cynomolgus monkey plasma; type: ADME, cell-free, Macaca fascicularis; details: read-out: PPB (converted)
NCI-H358 = assay: Antiproliferative activity against human NCI-H358 cells; type: functional, cell-based

`CC(=O)Nc1cccc(-n2c(=O)n(C3CC3)c(=O)c3c(Nc4ccc(I)cc4F)n(C)c(=O)c(C)c32)c1` [TRAMETINIB] showed an IC50 (KYSE-520 cell line; Homo sapiens, KYSE-520) of 10 nM.
Work on `CC1(N)CCN(c2cnc(-c3cccc(Cl)c3Cl)c(N)n2)CC1` yielded an IC50 (KYSE-520 cell line; Homo sapiens, KYSE-520) of 2500 nM, an IC50 [1] of 4500 nM and a ΔTm [2] of 7.5 °C. It also gave a logP [3] of 2.6, a solubility (physchem [4]) of 290 µM (≈ 102 µg/mL) and a logD (physchem [5]) of 0.92.
`Nc1nc(N2CCC3(CCC[C@H]3N)CC2)cnc1Sc1ccnc(N)c1Cl` gave an IC50 (KYSE-520 cell line; Homo sapiens, KYSE-520) of 123 nM, an IC50 [6] of 24 nM and an IC50 [7] greater than 30000 nM. It also gave a solubility (physchem [4]) of 561 µM (≈ 228 µg/mL), a logP (physchem [8]) of 2.2 and a logD (physchem [5]) of -0.6.
For `CC1(CN)CCN(c2cnc(Sc3ccnc(N)c3Cl)c(N)n2)CC1`, the IC50 (KYSE-520 cell line; Homo sapiens, KYSE-520) was 851 nM, the IC50 [6] was 123 nM and the IC50 [7] was greater than 30000 nM. For the same molecule, the solubility (physchem [4]) was 437 µM (≈ 166 µg/mL), the logP (physchem [8]) was 2 and the logD (physchem [5]) was -0.9.
In the case of `C=C(F)C(=O)N1CCN(c2nc(OC[C@@H]3CCCN3C)nc3c2CCN(c2cccc4cccc(Cl)c24)C3)C[C@@H]1CC#N` [ADAGRASIB], the IC50 (MIA PaCa-2) is reported as 100 nM.
In the case of `CC1(N)CCN(c2cnc(Cc3cccc(Cl)c3Cl)c(N)n2)CC1`, the IC50 [9] is reported as 9900 nM.
In the case of `C[C@@H]1OCC2(CCN(c3cnc(Sc4ccnc(N)c4Cl)c(N)n3)CC2)[C@@H]1N` [BATOPROTAFIB], the IC50 (KYSE-520 cell line; kyse-520) is reported as 100 nM, the IC50 [1] is reported as 666000 nM and the “inhibition (INH)” value (Cytochrome P450 3A4) is reported as “Not Active”. For the same molecule, the “inhibition (INH)” value (Cytochrome P450 2D6) was “Not Active”, the “inhibition (INH)” value (Cytochrome P450 2C9) was “Not Active” and the Activity [10] was “Non-Toxic”. For the same molecule, the Vd [11] was 3 L/kg, the half-life [12] was 2 h and the AUC/dose [13] was 1530 nM·h. It also gave an AUC/dose [14] of 1190 nM·h, a Cmax/dose [15] of 357 nM and a Tmax [16] of 0.8 h. It also gave a bioavailability [17] of 78%, a fraction unbound [18] of 0.24 and a clearance [19] of 15 mL/min/kg. For the same molecule, the Vd [20] was 7 L/kg, the half-life [21] was 8 h and the AUC/dose [22] was 2407 nM·h. For the same molecule, the AUC/dose [23] was 2483 nM·h, the Cmax/dose [24] was 657 nM and the Tmax [25] was 1 h. For the same molecule, the bioavailability [26] was 100%, the fraction unbound [27] was 0.19 and the clearance [28] was 4 mL/min/kg. It also gave a Vd [29] of 3 L/kg, a half-life [30] of 9 h and an AUC/dose [31] of 10690 nM·h. It also gave an AUC/dose [32] of 15854 nM·h, a Cmax/dose [33] of 1207 nM and a Tmax [34] of 2 h. It also gave a bioavailability [35] greater than 100%, a fraction unbound [36] of 0.36 and a clearance [37] of 6 mL/min/kg. For the same molecule, the Vd [38] was 4 L/kg, the half-life [39] was 9 h and the AUC/dose [40] was 6438 nM·h. The AUC/dose [41] was 3848 nM·h, the Cmax/dose [42] was 286 nM and the Tmax [43] was 2 h. The bioavailability [44] was 60%, the fraction unbound [45] was 0.39 and the IC50 [7] was greater than 30000 nM. For the same molecule, the solubility (physchem [4]) was 736 µM (≈ 311 µg/mL), the logP (physchem [8]) was 1.6 and the logD (physchem [5]) was 0.6.
Work on `CC1(CN)CCN(c2cnc(Sc3cccc(N)c3Cl)c(N)n2)CC1` yielded an IC50 [6] of 89 nM.
`CC1(N)CCN(c2cnc(Sc3cccc(Cl)c3Cl)c(N)n2)CC1` showed an IC50 (KYSE-520 cell line; kyse-520) of 4070 nM, an IC50 [1] of 16200 nM and an IC50 [6] of 195 nM. For the same molecule, the IC50 [7] was 2800 nM, the solubility (physchem [4]) was 7 µM (≈ 2.69 µg/mL) and the logP (physchem [8]) was 3.6. The logD (physchem [5]) was 1.1.
With `CC1(CN)CCN(c2cnc(Sc3cccnc3C(F)(F)F)c(N)n2)CC1` the IC50 (KYSE-520 cell line; Homo sapiens, KYSE-520) was 4050 nM.
`C=CC(=O)N1CCN(c2nc(=O)n(-c3c(C)ccnc3C(C)C)c3nc(-c4c(O)cccc4F)c(F)cc23)[C@@H](C)C1` [SOTORASIB] showed an IC50 (NCI-H358) of less than 30 nM.
